The target of test [1] is GDP-bound protein (aa 1-169), containing both G12C and C118A amino acid substitutions (Homo sapiens, UniProt P01116, C118A/G12C). The test is described as follows: Coupled Nucleotide Exchange Assay (SOS-mediated nucleotide exchange, AlphaScreen). The note with it: 2 hours compound pre-incubation. It counts as biochemical. The method in brief:
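His-tagged GDP-bound […] (aa 1-169, G12C/C118A) pre-incubated 2 h with compound titration in 25 mM HEPES pH 7.4, 10 mM MgCl2, 0.01% Triton X-100.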
A general note: Bead proximity is the source of the signal in Alpha formats.

Test [2] relates to Phosphorylation of ERK½ in A549 cells. As to the kind of experiment: Phospho-ERK½ MSD Assay in A549 cells. It counts as cell-based. The note with it: 4 hours compound treatment, 10 ng/mL EGF for 10 min, read-out: p-ERK IC50 (A549). In short, it runs like this:
(§1)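 MIA PaCa-2 or A549 cells (25,000/well, RPMI with 10% FBS) exposed to compound titration for 4 h at 37 °C, then stimulated with 10 ng/mL EGF for 10 min and lysed in RIPA. Phospho-ERK1/2 quantified by MSD whole-cell lysate immunoassay; IC50 from 4-parameter logistic fit.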

Test [3] concerns Phosphorylation of ERK½ in MIA PaCa-2 cells. As to the kind of experiment: Phospho-ERK½ MSD Assay in MIA PaCa-2 cells. It counts as cell-based. As to conditions: 4 hours compound treatment, 10 ng/mL EGF for 10 min, read-out: p-ERK IC50 (MIA PaCa-2). The method in brief: as §1
Where [4] appears, read: Homo sapiens, MIA PaCa-2, MIA PaCa-2 cells.

Here are results for 22 compounds from patent publication US11285135B2 (AMGEN INC., priority 2016, dated 2022).

In general, IC50 refers to the concentration needed to halve the response being measured.

Where two headings read alike, the source gives them in different places.

Chain of GDP-bound protein (aa 1-169), containing both G12C and C118A amino acid substitutions (P01116 1-169 isoform P01116-2 G12C/C118A): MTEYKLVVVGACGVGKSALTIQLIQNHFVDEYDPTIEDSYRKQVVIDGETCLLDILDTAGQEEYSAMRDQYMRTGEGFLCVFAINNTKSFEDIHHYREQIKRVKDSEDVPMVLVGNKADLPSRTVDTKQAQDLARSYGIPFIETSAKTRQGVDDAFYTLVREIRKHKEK

Regarding `C=CC(=O)N1CCN(c2snc3cc(-c4c(O)cccc4F)c(Cl)cc23)CC1` [Example 1-6, 1-(4-(5-chloro-6-(2-fluoro-6-hydroxyphenyl)-2,1-benzothiazol-3-yl)-1-piperazinyl)-2-propen-1-one], the “Coupled exchange IC50” value in test [1] came out at 2.88 µM. Also, the IC50 in test [2] (Homo sapiens, A549, A549 cells) is above 100 µM; in test [3] (setting [4]), 36.2 µM.
Taken in the same sequence, the figures for `C=CC(=O)N1CCN(c2snc3c(F)c(-c4cc(N)c(Cl)cc4Cl)c(Cl)cc23)CC1` [Example 3-20, 1-(4-(6-(5-amino-2,4-dichlorophenyl)-5-chloro-7-fluoro-2,1-benzothiazol-3-yl)-1-piperazinyl)-2-propen-l-one] were 2.99 µM, above 100 µM and 9.65 µM.
Regarding `C=CC(=O)N1CCN(c2snc3c(F)c(-c4cc(O)cc5ccccc45)c(Cl)cc23)[C@@H](CO)C1` [Example 1-15], the “Coupled exchange IC50” value in test [1] was determined as 0.562 µM. For the same compound, the 50% inhibitory concentration (IC50) in test [2] (Homo sapiens, A549, A549 cells) is above 100 µM; in test [3] (setting [4]), 4.7 µM.
Consider `C=CC(=O)N1CCN(c2snc3nc(-c4c(C)ccc5[nH]ncc45)c(Cl)cc23)C(C)C1` (single isomer, unassigned) [Example 2-6-2, 1-((3R)-4-(5-chloro-6-(5-methyl-1H-indazol-4-yl)[1,2]thiazolo[3,4-b]pyridin-3-yl)-3-methyl-1-piperazinyl)-2-propen-1-one or 1-((3S)-4-(5-chloro-6-(5-methyl-1H-indazol-4-yl)[1,2]thiazolo[3,4-b]pyridin-3-yl)-3-methyl-1-piperazinyl)-2-propen-1-one], for which the “Coupled exchange IC50” value in test [1] stood at 1.25 µM. Further, the IC50 is 3.7 µM in test [2] (Homo sapiens, A549, A549 cells) and 1.29 µM in test [3] (setting [4]).
Consider `C=CC(=O)N1CCN(c2nnc(-c3ccccc3C(C)C)c3cc(-c4c(O)cccc4F)c(C)nc23)CC1` [Example 27, 1-(4-(3-(2-Fluoro-6-hydroxyphenyl)-2-methyl-5-(2-(2-propanyl)phenyl)pyrido[2,3-d]pyridazin-8-yl)-1-piperazinyl)-2-propen-1-one], for which, in test [1], the “Coupled exchange IC50” value came to 1.78 µM. In addition, the 50% inhibitory concentration (IC50) is above 33.3 µM in test [2] (Homo sapiens, A549, A549 cells) and 12.8 µM in test [3] (setting [4]).
For the compound `C=CC(=O)N1CCN(c2nnc(-c3cc(Cl)ccc3C)c3cc(-c4c(O)cccc4F)c(Cl)cc23)CC1` [Example 10-3, 1-(4-(7-chloro-4-(5-chloro-2-methylphenyl)-6-(2-fluoro-6-hydroxyphenyl)-1-phthalazinyl)-1-piperazinyl)-2-propen-1-one], in test [1], the “Coupled exchange IC50” value amounted to 1.10 µM. Further, the half-maximal inhibitory concentration (IC50) in test [2] (Homo sapiens, A549, A549 cells) is above 100 µM; in test [3] (setting [4]), 9.33 µM.
Take `C=CC(=O)N1CCN(c2snc3c(F)c(-c4cc(O)cc5ccccc45)c(Cl)cc23)[C@@H](C(F)F)C1` (racemic) [Example 7-1]: the “Coupled exchange IC50” value in test [1] came to 0.299 µM. In addition, the IC50 is above 100 µM in test [2] (Homo sapiens, A549, A549 cells) and 0.43 µM in test [3] (setting [4]).
As for `C=CC(=O)N1CCN(c2nc(=O)n(-c3ccccc3C(C)C)c3cc(-c4cc(O)cc(Cl)c4Cl)c(Cl)cc23)[C@@H](C)C1` [Example 9-1, 6-Chloro-7-(2,3-dichloro-5-hydroxyphenyl)-4-((2S)-2-methyl-4-(2-propenoyl)-1-piperazinyl)-1-(2-(2-propanyl)phenyl)-2(1H)-quinazolinone], the “Coupled exchange IC50” value in test [1] came out at 0.155 µM. In addition, the half-inhibitory concentration (IC50) in test [2] (Homo sapiens, A549, A549 cells) amounted to 57.4 µM; in test [3] (setting [4]), 0.052 µM.
For `C=CC(=O)N1CCN(c2nc(=O)n(-c3ccccc3C(C)C)c3cc(-c4c(C)ccc5[nH]ncc45)c(Cl)cc23)[C@@H](C)C1` (single isomer, unassigned) [Example 11-2-1], the “Coupled exchange IC50” value in test [1] was 0.219 µM. In addition, the results for the concentration for half-maximal inhibition (IC50) in test [2] (A549 cells) and in test [3] (MIA PaCa-2 cells) were 10 µM and 0.054 µM, respectively.
As for `C=CC(=O)N1CCN(c2snc3nc(-c4c(O)cccc4F)c(Cl)cc23)[C@@H](C)C1` (racemic) [Example 2-3, 1-(4-(5-chloro-6-(2-fluoro-6-hydroxyphenyl)[1,2]thiazo[3,4-b]pyridin-3-yl)-3-methyl-1-piperazinyl)-2-propen-1-one], the “Coupled exchange IC50” value in test [1] is 4.05 µM. Besides, the IC50 in test [2] (Homo sapiens, A549, A549 cells) was above 100 µM; in test [3] (setting [4]), 6.53 µM.
Taken in the same sequence, the figures for `C=CC(=O)N1CCN(c2snc3c(F)c(-c4nc(N)cc5ccccc45)c(Cl)cc23)CC1` [Example 25, 1-(4-(6-(3-Amino-1-isoquinolinyl)-5-chloro-7-fluoro-2,1-benzothiazol-3-yl)-1-piperazinyl)-2-propen-1-one] were 0.251 µM, above 100 µM and 0.786 µM.
In the same order, the values of `C=CC(=O)N1CCN(c2nc(=O)n(-c3cccc(C#N)c3)c3cc(-c4c(O)cccc4F)c(Cl)cc23)CC1` [Example 9-5, 3-(6-chloro-7-(2-fluoro-6-hydroxyphenyl)-2-oxo-4-(4-(2-propenoyl)-1-piperazinyl)-1(2H)-quinazolinyl)benzonitrile] are 1.33 µM, above 100 µM and 3.92 µM.
Taken in the same sequence, the figures for `C=CC(=O)N1CCN(c2snc3c(F)c(-c4c(O)cccc4F)c(Cl)cc23)CC1` [Example 3-6, 1-(4-(5-chloro-7-fluoro-6-(2-fluoro-6-hydroxyphenyl)-2,1-benzothiazol-3-yl)-1-piperazinyl)-2-propen-1-one] were 1.05 µM, above 100 µM and 11.8 µM.
With `C=CC(=O)N1CC[C@@H]2[C@H]1CN2c1snc2c(F)c(-c3cc(O)cc4ccccc34)c(Cl)cc12` [Example 5-5, 1-((1R,5R)-6-(5-chloro-7-fluoro-6-(3-hydroxy-1-naphthalenyl)-2,1-benzothiazol-3-yl)-2,6-diazabicyclo[3.2.0]heptan-2-yl)-2-propen-1-one], the “Coupled exchange IC50” value in test [1] is 0.341 µM. For the same compound, the 50% inhibitory concentration (IC50) was above 100 µM in test [2] (Homo sapiens, A549, A549 cells) and 2.53 µM in test [3] (setting [4]).
Regarding `C=CC(=O)N1CCN(c2nc(=O)n(-c3ccccc3C(C)C)c3cc(-c4c(O)cccc4F)c(Cl)cc23)[C@@H](C)C1` (single isomer, unassigned) [Example 8-3-2], the “Coupled exchange IC50” value in test [1] came out at 0.340 µM. Besides, the IC50 in test [2] (A549 cells) was above 100 µM; in test [3] (MIA PaCa-2 cells), 0.028 µM.
For `C=CC(=O)N1CCN(c2nc(=O)n(-c3c(CC)cccc3CC)c3nc(-c4c(O)cccc4F)c(Cl)cc23)[C@@H](C)C1` [Example 8-4, 6-chloro-1-(2,6-diethylphenyl)-7-(2-fluoro-6-hydroxyphenyl)-4-((2S)-2-methyl-4-(2 propenoyl)-1-piperazinyl)pyrido[2,3-d]pyrimidin-2(1H)-one], the “Coupled exchange IC50” value in test [1] was 0.095 µM. Also, the concentration for half-maximal inhibition (IC50) was above 33.3 µM in test [2] (Homo sapiens, A549, A549 cells) and 0.017 µM in test [3] (setting [4]).
Consider `C=CC(=O)N1C[C@@H]2[C@H]1CCN2c1snc2c(F)c(-c3cc(O)cc4ccccc34)c(Cl)cc12` (racemic) [Example 5-8, 1-(cis-2-(5-Chloro-7-fluoro-6-(3-hydroxy-1-naphthalenyl)-2,1-benzothiazol-3-yl)-2,6-diazabicyclo[3.2.0]heptan-6-yl)-2-propen-1-one], for which, in test [1], the “Coupled exchange IC50” value amounted to 0.433 µM. Further, the IC50 in test [2] (Homo sapiens, A549, A549 cells) was above 33.3 µM; in test [3] (setting [4]) it was 1.2 µM.
In the same order, the values of `C=CC(=O)N1CCN(c2nnc(-c3cccnc3C)c3cc(-c4c(O)cccc4F)c(Cl)cc23)CC1` [Example 10-8] are 1.34 µM, above 100 µM and 12.9 µM.
`C=CC(=O)N1C[C@@H](C)N(c2snc3c(F)c(-c4cc(O)cc5ccccc45)c(Cl)cc23)[C@H](C)C1` (racemic) [Example 2-7, 1-(4-(5-chloro-7-fluoro-6-(3-hydroxy-1-naphthalenyl)-2,1-benzothiazol-3-yl)-3,5-dimethyl-1-piperazinyl)-2-propen-1-one]: the “Coupled exchange IC50” value in test [1] was 1.08 µM. The IC50 was above 33.3 µM in test [2] (Homo sapiens, A549, A549 cells) and 3.87 µM in test [3] (setting [4]).
As to `C=CC(=O)N1CCN(c2snc3c(F)c(-c4cc(O)cc5ccccc45)c(Cl)cc23)[C@H](C)C1` [Example 1-21, 1-((3R)-4-(5-chloro-7-fluoro-6-(3-hydroxy-1-naphthalenyl)-2,1-benzothiazol-3-yl)-3-methyl-1-piperazinyl)-2-propen-1-one], in test [1], the “Coupled exchange IC50” value was found to be 1.30 µM. Moreover, the IC50 in test [2] (Homo sapiens, A549, A549 cells) was above 100 µM; in test [3] (setting [4]), 4.89 µM.
As for `C=CC(=O)N1CCN(c2snc3nc(-c4c(C)ccc5[nH]ncc45)c(Cl)cc23)C(C)C1` (racemic) [Example 2-6, 1-(4-(5-chloro-6-(5-methyl-1H-indazol-4-yl)[1,2]thiazolo[3,4-b]pyridin-3-yl)-3-methyl-1-piperazinyl)-2-propen-1-one], the “Coupled exchange IC50” value in test [1] was determined as 1.59 µM. In addition, the 50% inhibitory concentration (IC50) in test [2] (Homo sapiens, A549, A549 cells) amounted to 3.7 µM; in test [3] (setting [4]) it was 2.97 µM.
Consider `C=CC(=O)N1CCN(c2snc3c(F)c(-c4c(C5CC5)ccc5[nH]ncc45)c(Cl)cc23)CC1` [Example 23, 1-(4-(5-chloro-6-(5-cyclopropyl-1H-indazol-4-yl)-7-fluoro-2,1-benzothiazol-3-yl)-1-piperazinyl)-2-propen-1-one], for which, in test [1], the “Coupled exchange IC50” value stood at 3.29 µM. The half-maximal inhibitory concentration (IC50) in test [2] (Homo sapiens, A549, A549 cells) is above 33.3 µM; in test [3] (setting [4]), 3.21 µM.
